From publication PMC10496123, “Potent Antifungal Activity of Penta-O-galloyl-β-D-Glucose against Drug-Resistant Candida albicans, Candida auris, and Other Non-albicans Candida Species” (ACS Infectious Diseases, 2023)
≈ marks a conversion by molar mass, not a printed value. Where “and” joins values, the source holds several entries; their conditions need not be identical. Identical values can stand only once. Entries after “also recorded” stand apart in the source; their conditions may differ.

Tests used:
C. albicans [1] = test: Concentration-response matrixes (checkerboard assays); assay type: cell-based, Candida albicans; conditions: FICI at 90% growth inhibition, 48 h, 30 °C
MDA-MB-231 = system: MDA-MB-231; set-up: method as in PMID 33707603; conditions: induction of apoptosis; cited from earlier work
influenza A = system: influenza A; set-up: method as in PMID 35033970; conditions: interference with viral replication; cited from earlier work
SK-HEP-1 cells = system: SK-HEP-1 cells; set-up: method as in PMID 11675148; conditions: inhibition of proliferation; cited from earlier work
C. albicans [2] = test: Ergosterol binding assay (growth inhibition with exogenous ergosterol); assay type: cell-based, Candida albicans; conditions: 80 μg mL^–1 exogenous ergosterol, 1×–4× MIC, 24 h
Description: Ergosterol binding was measured using a previously described method,[60] with some modifications. Briefly, ergosterol (TCI) was pulverized with a sterile pestle and mortar and then dissolved in 100% ethanol. The resultant emulsion was warmed at 37 °C for 15 min and then sonicated for 45 min prior to use. […] The negative control was untreated culture. A media blank was used to monitor for contamination. Experiments were repeated in triplicate with three technical replicates per treatment and on different days. page 5: Figure S4. Growth inhibition of penta-O-galloyl-β-D-glucose against C. albicans not affected by additional ergosterol. C. albicans was treated with PGG or […] mL-1). After 24 hours, treatment groups were measured for growth inhibition. The data are plotted as mean % growth inhibition ± SD as compared to vehicle controls from three independent experiments . Dotted line represents 90% growth inhibition . S5 (1 picture or pasted object on this page, not shown here)

[3] = system: C. albicans wild type (CAF2-1) and cdr1Δ/Δ cdr2Δ/Δ mdr1Δ/Δ flu1Δ/Δ; test: microbe, parasite or virus in culture; assay type: cell-based, Candida albicans; conditions: for MIC90: Candida albicans, 72 h, RPMI-1640, 72 h, 30 °C, OD600
Hek293 cells = test: CellTiter-Glo cell viability/proliferation (relative ATP); assay type: cell-based; conditions: Homo sapiens, HEK293, 24 h; read-out: IC50 (viable cell number reduced by 50%, relative ATP)
Description: (§1) Hek293 cells were purchased from BEI Resources. HaCaT cells were purchased from ATCC. HepG2 cells were provided by Dr. Edward Morgan (Emory University). Mammalian cell cultures were maintained in Dulbecco’s modified Eagle’s medium with L-glutamine and 4.5 g L^–1 glucose (Corning) supplemented with 10% fetal bovine serum (Avantor) and a 100× combination solution of 10,000 IU mL^–1 penicillin and 10,000 μg mL^–1 streptomycin (Corning) at 37 °C, 5% CO2. Mammalian cultures at 70–80% confluency were used for cell viability and cytotoxicity experiments.
(§2) ATP content as a marker for the relative viable cell number was measured with the CellTiter-Glo Luminescent Cell Viability assay (Promega Corporation). The mammalian culture was standardized at 4 × 10^3 cells per 100 μL in a Costar 3610 white plate, clear bottom 96-well plates (Corning). Cells were allowed to attach and incubate for 24 h before growth media was replaced with treatment media (PGG, 16–512 μg mL^–1) or an equivalent volume of DMSO, followed by incubation for 24 h. After incubation with treatment, plates were equilibrated to room temperature for 1 h, and then 100 μL of CellTiter-Glo reagent was added to each well and mixed for 2 min. Plates were allowed to incubate at room temperature for 10 min before luminosity was measured with an integration time of 1 s via a BioTek Cytation3 plate reader. The relative viable cell number was measured by comparing treatment samples to untreated controls. Experiments were repeated in triplicate with three technical replicates per treatment and on different days.

HepG2 cells = test: as above; assay type: cell-based; conditions: Homo sapiens, HepG2, 24 h; read-out: IC50 (viable cell number reduced by 50%, relative ATP)
Description: as §1, §2

HaCaT cells = test: as above; assay type: cell-based; conditions: Homo sapiens, 24 h, read-out: IC50 (viable cell number, relative ATP)
Description: as §1, §2

[4] = system: Acinetobacter baumannii (various strains); set-up: method as in PMID 32948818; conditions: antibacterial; possibly iron chelation; cited from earlier work
[5] = LDH chemical-induced cytotoxicity; assay type: cell-based
Description: as §1
The mammalian culture was standardized to 4 × 10^3 cells per 100 μL. Cells were allowed to attach and incubate for 24 h before growth media was replaced with treatment media (PGG, 16–512 μg mL^–1) or an equivalent volume of the DMSO vehicle, followed by incubation for 24 h. Plates were then evaluated with an LDH cytotoxicity assay (G Biosciences) and processed according to the manufacturer’s protocol for chemical-induced cytotoxicity. Experiments were repeated in triplicate with three technical replicates per treatment and on different days.

HT-29 cells = system: HT-29 cells; set-up: method as in PMID 27196315, PMID 29778287; conditions: inhibition of proliferation; cited from earlier work
C. glabrata CDC325 = test: Iron supplementation growth inhibition assay; assay type: cell-based, Candida glabrata; conditions: 10 mM iron (II) or iron (III); PGG 4–16 μg mL^–1; 48 h
Description: For iron supplementation assays, growth inhibition assays were performed by microbroth dilution following the guidelines set by the CLSI.[58] A solution of iron (II) sulfate and iron (III) sulfate (VWR) was dissolved in deionized water to a concentration of 10 mM and added to treated wells at the beginning of incubation. Growth inhibition was measured after 48 h. Percent growth inhibition was determined by comparing treatments to vehicle controls. Iron supplementation experiments were repeated in duplicate with three technical replicates per treatment and on different days.

Candida albicans = test: Growth inhibition by CLSI microbroth dilution; assay type: cell-based; conditions: for MIC / IC50: Candida albicans, 48 h; for MIC: >90% growth inhibition
[6] = system: C. albicans wild type (SN95, SN152) and ire1Δ/Δ, hap43Δ/Δ, rim101Δ/Δ; test: microbe, parasite or virus in culture; assay type: cell-based, Candida albicans; conditions: for MIC90: Candida albicans, 48 h, 30 °C

O=C(OC[C@H]1O[C@@H](OC(=O)c2cc(O)c(O)c(O)c2)[C@H](OC(=O)c2cc(O)c(O)c(O)c2)[C@@H](OC(=O)c2cc(O)c(O)c(O)c2)[C@@H]1OC(=O)c1cc(O)c(O)c(O)c1)c1cc(O)c(O)c(O)c1 [PGG, penta-O-galloyl-β-D-glucose]
Synergistic interaction with caspofungin (C. albicans [1]; C. albicans ATCC 90028): does not potentiate | Synergistic interaction with fluconazole (C. albicans [1]; azole-tolerant clinical isolate CaCi-2): does not potentiate | IC50/EC50 (MDA-MB-231): 50.23 µM | IC50/EC50 (influenza A): 5.3 µg/mL (≈ 5.63 µM) | IC50/EC50 (SK-HEP-1 cells): 25 to 50 µM | Growth inhibitory activity with additional ergosterol (C. albicans [2]): not affected | MIC90 ([3]; Wild type (CAF2-1)): > 5 µg/mL | MIC90 ([3]; cdr1Δ/Δ cdr2Δ/Δ mdr1Δ/Δ flu1Δ/Δ): > 5 µg/mL | Effect of absence of major efflux pumps (CDR1, CDR2, FLU1, MDR1) on sensitivity ([3]; mutant versus wild type): did not modify sensitivity | IC50 (Hek293 cells): 64 µg/mL and 68 µM | IC50 (HepG2 cells): 68 µM and 64 µg/mL | IC50 (HaCaT cells): 32 µg/mL and 34 µM | IC50/EC50 [4]: 16 to 64 µg/mL | CC50 at 24 h ([5]; HaCaT cells (keratinocytes), HaCaT (human keratinocytes)): > 272 µM | CC50 at 24 h ([5]; HaCaT cells (keratinocytes), HaCaT (human keratinocytes), serum-supplemented medium): > 256 µg/mL | CC50 at 24 h ([5]; Hek293 cells (kidney), Hek293 (human kidney)): > 272 µM | CC50 at 24 h ([5]; Hek293 cells (kidney), Hek293 (human kidney), serum-supplemented medium): > 256 µg/mL | CC50 at 24 h ([5]; HepG2 cells (liver), HepG2 (human liver)): > 272 µM | CC50 at 24 h ([5]; HepG2 cells (liver), HepG2 (human liver), serum-supplemented medium): > 256 µg/mL | IC50/EC50 (HT-29 cells): 4.46 µM | Reduction of the growth inhibitory activity on iron supplementation (C. glabrata CDC325): 80–100% | MIC (Candida albicans; ATCC90028, strain ATCC 90028): 1 µg/mL (≈ 1.06 µM) | IC50 (Candida albicans; ATCC90028, strain ATCC 90028, lowest concentration with >50% growth inhibition): 0.5 µg/mL (≈ 0.532 µM) | IC50 (Candida albicans; strain MH12, >50% growth inhibition): 0.25 µg/mL (≈ 0.266 µM) | MIC (Candida albicans; strain MH12): 0.5 µg/mL (≈ 0.532 µM) | MIC (range over strains) (Candida albicans; two strains of C. albicans): 0.5 to 1.0 μg mL^–1 | MIC90 ([6]; Wild type (SN95)): > 20 µg/mL | MIC90 ([6]; Wild type (SN152)): > 20 µg/mL | MIC90 ([6]; hap43Δ/Δ): 0.625 µg/mL (≈ 0.664 µM) | MIC90 ([6]; ire1Δ/Δ): 0.625 µg/mL (≈ 0.664 µM) | MIC90 ([6]; rim101Δ/Δ): 0.625 µg/mL (≈ 0.664 µM) | Effect of deletion of IRE1, HAP43 and RIM101 on sensitivity ([6]; mutants versus wild type): hypersensitive; also recorded: hypersensitivity
